For 29 compounds, IC50 results are on record in US8729082B2, “Substituted imidazoquinoxalines” (Bayer Intellectual Property GmbH, priority 2009, dated 2014).

For orientation: IC50 means the point on the concentration scale where inhibition reaches its midpoint.

This assay deals with T1, human kinase Mps-1 (Homo sapiens, UniProt P33981).
T1 construct: N-terminally GST-tagged human full length recombinant Mps-1 kinase; purchased Invitrogen, Karslruhe, Germany PV4071
T1 sequence (P33981 1-857): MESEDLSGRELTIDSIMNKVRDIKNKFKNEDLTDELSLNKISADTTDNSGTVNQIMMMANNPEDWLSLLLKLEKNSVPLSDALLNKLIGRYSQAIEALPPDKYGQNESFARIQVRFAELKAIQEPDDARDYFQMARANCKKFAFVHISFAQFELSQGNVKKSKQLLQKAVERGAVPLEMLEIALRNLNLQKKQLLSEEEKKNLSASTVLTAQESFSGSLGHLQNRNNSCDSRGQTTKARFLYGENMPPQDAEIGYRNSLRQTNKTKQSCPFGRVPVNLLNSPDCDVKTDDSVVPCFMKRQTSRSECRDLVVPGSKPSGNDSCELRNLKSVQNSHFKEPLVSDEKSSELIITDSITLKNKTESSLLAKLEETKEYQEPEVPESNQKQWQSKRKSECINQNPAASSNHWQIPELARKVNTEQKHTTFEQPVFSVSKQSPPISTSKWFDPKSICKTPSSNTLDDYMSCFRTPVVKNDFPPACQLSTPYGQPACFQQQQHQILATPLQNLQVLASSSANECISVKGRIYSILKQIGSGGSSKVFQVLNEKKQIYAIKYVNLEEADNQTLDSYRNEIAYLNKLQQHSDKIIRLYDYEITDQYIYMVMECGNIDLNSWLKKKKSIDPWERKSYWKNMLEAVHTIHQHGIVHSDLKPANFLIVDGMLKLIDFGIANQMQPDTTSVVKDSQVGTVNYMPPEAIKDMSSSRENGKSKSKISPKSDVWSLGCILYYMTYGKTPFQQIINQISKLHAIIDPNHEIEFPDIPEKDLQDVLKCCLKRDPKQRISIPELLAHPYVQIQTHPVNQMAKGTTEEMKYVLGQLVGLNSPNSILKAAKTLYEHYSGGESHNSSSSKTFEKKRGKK
The assay is described as follows: Mps-1 kinase assay (HTRF). The format is biochemical. The following applies: lowATP; mean; read-out: Mps1 lowATP mean IC50. In short, it runs like this: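 HTRF readout: EDTA-stopped reactions incubated 1 h with europium anti-phospho(Ser/Thr) antibody and streptavidin-XLent, emission ratio 665/620 nm after 350 nm excitation. Kinase step: compound pre-bound 15 min to ~1 nM GST-Mps-1, then 60 min at 22 °C with ATP and biotin-peptide substrate; inhibition scaled between no-inhibitor (0%) and no-enzyme (100%) controls.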
On the technique in general: Time-resolved FRET reads energy transfer from a long-lived donor to a nearby acceptor.
For the compound `O=C(NC1CC1)c1ccc(-c2cnc3c(NCCO)nc4cc(F)c(F)cc4n23)cc1` [Example 2-89, N-cyclopropyl-4-{7,8-difluoro-4-[(2-hydroxyethyl)amino]imidazo[1,2-a]quinoxalin-1-yl}benzamide], the IC50 amounted to 286 nM. Under `O=C(NC1CC1)c1ccc(-c2cnc3c(NCCCN4CCOCC4)nc4cc(F)c(F)cc4n23)cc1` [Example 2-90, N-cyclopropyl-4-(7,8-difluoro-4-{[3-(morpholin-4-yl)propyl]amino}imidazo[1,2-a]quinoxalin-1-yl)benzamide] stands 438 nM. Under `CC(C)CCNc1nc2cc(F)c(F)cc2n2c(-c3ccc(C(=O)NC4CC4)cc3)cnc12` [Example 2-91, N-cyclopropyl-4-{7,8-difluoro-4-[(3-methylbutyl)amino]imidazo[1,2-a]quinoxalin-1-yl}benzamide] stands 55.5 nM; under `O=C(NC1CC1)c1ccc(-c2cnc3c(NCc4cccc(F)c4)nc4cc(F)c(F)cc4n23)cc1` [Example 2-92, N-cyclopropyl-4-{7,8-difluoro-4-[(3-fluorobenzyl)amino]imidazo[1,2-a]quinoxalin-1-yl}benzamide], 143 nM; under `O=C(NC1CC1)c1ccc(-c2cnc3c(NCCCN4CCCC4=O)nc4cc(F)c(F)cc4n23)cc1` [Example 2-93, N-cyclopropyl-4-(7,8-difluoro-4-{[3-(2-oxopyrrolidin-1-yl)propyl]amino}imidazo[1,2-a]quinoxalin-1-yl)benzamide], 382 nM. Under `COCCNc1nc2cc(F)c(F)cc2n2c(-c3ccc(C(=O)NC4CC4)cc3)cnc12` [Example 2-94, N-cyclopropyl-4-{7,8-difluoro-4-[(2-methoxyethyl)amino]imidazo[1,2-a]quinoxalin-1-yl}benzamide] stands 161 nM; under `O=C(NC1CC1)c1ccc(-c2cnc3c(NCc4ccc(F)cc4)nc4cc(F)c(F)cc4n23)cc1` [Example 2-95, N-cyclopropyl-4-{7,8-difluoro-4-[(4-fluorobenzyl)amino]imidazo[1,2-a]quinoxalin-1-yl}benzamide], 75.8 nM; under `O=C(NC1CC1)c1ccc(-c2cnc3c(NCCCCO)nc4cc(F)c(F)cc4n23)cc1` [Example 2-96, N-cyclopropyl-4-{7,8-difluoro-4-[(4-hydroxybutyl)amino]imidazo[1,2-a]quinoxalin-1-yl}benzamide], 59.5 nM. For `O=C(NC1CC1)c1ccc(-c2cnc3c(NCC(F)(F)F)nc4cc(F)c(F)cc4n23)cc1` [Example 2-97, N-cyclopropyl-4-{7,8-difluoro-4-[(2,2,2-trifluoroethyl)amino]imidazo[1,2-a]quinoxalin-1-yl}benzamide], the IC50 was determined as 93.7 nM.

On to `O=C(NC1CC1)c1ccc(-c2cnc3c(NCc4cccs4)nc4cc(F)c(F)cc4n23)cc1` [Example 2-98, N-cyclopropyl-4-{7,8-difluoro-4-[(thiophen-2-ylmethyl)amino]imidazo[1,2-a]quinoxalin-1-yl}benzamide], for which the IC50 worked out at 62.2 nM. The value for `CCNc1nc2cc(F)c(F)cc2n2c(-c3ccc(C(=O)NC4CC4)cc3)cnc12` [Example 2-99, N-cyclopropyl-4-[4-(ethylamino)-7,8-difluoroimidazo[1,2-a]quinoxalin-1-yl]benzamide] was 59.8 nM; that for `O=C(NC1CC1)c1ccc(-c2cnc3c(NCCCO)nc4cc(F)c(F)cc4n23)cc1` [Example 2-100, N-cyclopropyl-4-{7,8-difluoro-4-[(3-hydroxypropyl)amino]imidazo[1,2-a]quinoxalin-1-yl}benzamide] was 75.3 nM. The value for `CCCCNc1nc2cc(F)c(F)cc2n2c(-c3ccc(C(=O)NC4CC4)cc3)cnc12` [Example 2-101, 4-[4-(butylamino)-7,8-difluoroimidazo[1,2-a]quinoxalin-1-yl]-N-cyclopropylbenzamide] was 28.3 nM; that for `CC(=O)NCCNc1nc2cc(F)c(F)cc2n2c(-c3ccc(C(=O)NC4CC4)cc3)cnc12` [Example 2-102, 4-(4-{[2-(acetylamino)ethyl]amino}-7,8-difluoroimidazo[1,2-a]quinoxalin-1-yl)-N-cyclopropylbenzamide] was 584 nM. Turning to `O=C(NC1CC1)c1ccc(-c2cnc3c(NCCCn4ccnc4)nc4cc(F)c(F)cc4n23)cc1` [Example 2-103, N-cyclopropyl-4-(7,8-difluoro-4-{[3-(1H-imidazol-1-yl)propyl]amino}imidazo[1,2-a]quinoxalin-1-yl)benzamide], the IC50 was determined as 229 nM.

Consider `O=C(NC1CC1)c1ccc(-c2cnc3c(NCC4CC4)nc4cc(F)c(F)cc4n23)cc1` [Example 2-104, N-cyclopropyl-4-{4-[(cyclopropylmethyl)amino]-7,8-difluoroimidazo[1,2-a]quinoxalin-1-yl}benzamide], for which the IC50 is 34.1 nM. With `O=C(NC1CC1)c1ccc(-c2cnc3c(NCc4ccco4)nc4cc(F)c(F)cc4n23)cc1` [Example 2-105, N-cyclopropyl-4-{7,8-difluoro-4-[(furan-2-ylmethyl)amino]imidazo[1,2-a]quinoxalin-1-yl}benzamide], the IC50 turned out to be 52.8 nM. Under `CC(C)CNc1nc2cc(F)c(F)cc2n2c(-c3ccc(C(=O)NC4CC4)cc3)cnc12` [Example 2-106, N-cyclopropyl-4-{7,8-difluoro-4-[(2-methylpropyl)amino]imidazo[1,2-a]quinoxalin-1-yl}benzamide] stands 24.5 nM; under `NC(=O)CCNc1nc2cc(F)c(F)cc2n2c(-c3ccc(C(=O)NC4CC4)cc3)cnc12` [Example 2-107, 4-{4-[(3-amino-3-oxopropyl)amino]-7,8-difluoroimidazo[1,2-a]quinoxalin-1-yl}-N-cyclopropylbenzamide], 233 nM. The value for `COCCCNc1nc2cc(F)c(F)cc2n2c(-c3ccc(C(=O)NC4CC4)cc3)cnc12` [Example 2-108, N-cyclopropyl-4-{7,8-difluoro-4-[(3-methoxypropyl)amino]imidazo[1,2-a]quinoxalin-1-yl}benzamide] was 114 nM; that for `Cn1ccc(CNc2nc3cc(F)c(F)cc3n3c(-c4ccc(C(=O)NC5CC5)cc4)cnc23)n1` [Example 2-109, N-cyclopropyl-4-(7,8-difluoro-4-{[(1-methyl-1H-pyrazol-3-yl)methyl]amino}imidazo[1,2-a]quinoxalin-1-yl)benzamide] was 256 nM.

With `Cn1nccc1CNc1nc2cc(F)c(F)cc2n2c(-c3ccc(C(=O)NC4CC4)cc3)cnc12` [Example 2-110, N-cyclopropyl-4-(7,8-difluoro-4-{[(1-methyl-1H-pyrazol-5-yl)methyl]amino}imidazo[1,2-a]quinoxalin-1-yl)benzamide], the IC50 was determined as 28.5 nM. The value for `Cn1cc(CNc2nc3cc(F)c(F)cc3n3c(-c4ccc(C(=O)NC5CC5)cc4)cnc23)cn1` [Example 2-111, N-cyclopropyl-4-(7,8-difluoro-4-{[(1-methyl-1H-pyrazol-4-yl)methyl]amino}imidazo[1,2-a]quinoxalin-1-yl)benzamide] was 79.6 nM; that for `NS(=O)(=O)CCNc1nc2cc(F)c(F)cc2n2c(-c3ccc(C(=O)NC4CC4)cc3)cnc12` [Example 2-112, N-cyclopropyl-4-{7,8-difluoro-4-[(2-sulfamoylethyl)amino]imidazo[1,2-a]quinoxalin-1-yl}benzamide] was 53 nM; that for `O=C(NC1CC1)c1ccc(-c2cnc3c(NCC(O)CO)nc4cc(F)c(F)cc4n23)cc1` (centres unmarked) [Example 2-113, N-cyclopropyl-4-{4-[(2,3-dihydroxypropyl)amino]-7,8-difluoroimidazo[1,2-a]quinoxalin-1-yl}benzamide] was 197 nM.

As to `CCCNc1nc2cc(F)c(F)cc2n2c(-c3ccc(NC(=O)NC)cc3)cnc12` [Example 2-114, 1-{4-[7,8-difluoro-4-(propylamino)imidazo[1,2-a]quinoxalin-1-yl]phenyl}-3-methylurea], the IC50 turned out to be 16000 nM.

Consider `CNC(=O)Nc1ccc(-c2cnc3c(NCCCN4CCCC4=O)nc4cc(F)c(F)cc4n23)cc1` [Example 2-115, 1-[4-(7,8-difluoro-4-{[3-(2-oxopyrrolidin-1-yl)propyl]amino}imidazo[1,2-a]quinoxalin-1-yl)phenyl]-3-methylurea], for which the IC50 came out at 16100 nM. Under `CNC(=O)Nc1ccc(-c2cnc3c(NCCCO)nc4cc(F)c(F)cc4n23)cc1` [Example 2-116, 1-(4-{7,8-difluoro-4-[(3-hydroxypropyl)amino]imidazo[1,2-a]quinoxalin-1-yl}phenyl)-3-methylurea] stands 5340 nM. The value for `CCCCNc1nc2cc(F)c(F)cc2n2c(-c3ccc(NC(=O)NC)cc3)cnc12` [Example 2-117, 1-{4-[4-(butylamino)-7,8-difluoroimidazo[1,2-a]quinoxalin-1-yl]phenyl}-3-methylurea] was 19400 nM.
